Measurements reported in the supplement of paper PMC11061612.

How the values were obtained:
Experiment in all cases: Bliss excess, mean over the matrix (fraction); higher = more synergy
EW-24 (Ewing's Sarcoma) = system: EW-24 (Ewing's Sarcoma)
Summary of the method: (§1)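 Cell lines in DMEM/F12 or RPMI with 10% FBS were plated in 1536-well plates, held 24 hours at 37°C, 5% CO2, then given two-drug dose matrices for 72 hours (DMSO typically 0.2%). Viability was read by CellTiter-Glo 2.0 luminescence and scaled as inhibition from 0 (vehicle wells) to 1 (blank wells). Combination Emax is the second-highest inhibition in the matrix; Bliss excess is observed combination effect minus expected EA + EB − EA·EB, EA and EB being single-agent effects.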

[1] = system: NCI-H1915 (Non-Small Cell Lung Carcinoma)
Summary of the method: as §1

[2] = system: MIA-PaCa-2 (Pancreatic Carcinoma)
Summary of the method: as §1

[3] = system: EFM-19 (Breast Carcinoma)
Summary of the method: as §1

[4] = system: SW13 (Other Solid Carcinomas)
Summary of the method: as §1

UACC-62 (Melanoma) = system: UACC-62 (Melanoma)
Summary of the method: as §1

[5] = system: OVCAR-4 (Ovarian Carcinoma)
Summary of the method: as §1

PWR-1E (Non-Cancerous) = system: PWR-1E (Non-Cancerous)
Summary of the method: as §1

[6] = system: AMO-1 (Plasma Cell Myeloma)
Summary of the method: as §1

[7] = system: NCI-H727 (Other Solid Carcinomas)
Summary of the method: as §1

[8] = system: BT-549 (Breast Carcinoma)
Summary of the method: as §1

[9] = system: RF-48 (B-Cell Non-Hodgkin's Lymphoma)
Summary of the method: as §1

NB69 (Neuroblastoma) = system: NB69 (Neuroblastoma)
Summary of the method: as §1

[10] = system: C-4-I (Cervical Carcinoma)
Summary of the method: as §1

[11] = system: MLMA (Other Blood Carcinomas)
Summary of the method: as §1

[12] = system: VA-ES-BJ (Other Solid Carcinomas)
Summary of the method: as §1

[13] = system: SU8686 (Pancreatic Carcinoma)
Summary of the method: as §1

[14] = system: EoL-1-cell (Acute Myeloid Leukemia)
Summary of the method: as §1

[15] = system: HGC-27 (Gastric Carcinoma)
Summary of the method: as §1

D-263MG (Glioblastoma) = system: D-263MG (Glioblastoma)
Summary of the method: as §1

CCN(CCO)CCCOc1ccc2c(Nc3cc(CC(=O)Nc4cccc(F)c4)[nH]n3)ncnc2c1 [AZD2811] + C=CCn1c(=O)c2cnc(Nc3ccc(N4CCN(C)CC4)cc3)nc2n1-c1cccc(C(C)(C)O)n1 [AZD1775] (first compound max 1 µM, partner max 1 µM)
Bliss excess (EW-24 (Ewing's Sarcoma)): 0.0045
Bliss excess [1]: 0.0056
Bliss excess [2]: 0.0756
Bliss excess [3]: -0.0269
Bliss excess [4]: 0.0821
Bliss excess (UACC-62 (Melanoma)): -0.029
Bliss excess [5]: 0.0107
Bliss excess (PWR-1E (Non-Cancerous)): 0.118
Bliss excess [6]: -0.0276
Bliss excess [7]: -0.0909
Bliss excess [8]: 0.017
Bliss excess [9]: 0.0041
Bliss excess (NB69 (Neuroblastoma)): -0.0383
Bliss excess [10]: 0.0264
Bliss excess [11]: 0.0432
Bliss excess [12]: 0.0263
Bliss excess [13]: -0.0166
Bliss excess [14]: -0.0033
Bliss excess [15]: -0.0176
Bliss excess (D-263MG (Glioblastoma)): 0.0698

CC(=O)c1c(C)c2cnc(Nc3ccc(N4CCNCC4)cn3)nc2n(C2CCCC2)c1=O [Palbociclib] + Cc1c2c(nn1C)CSCc1cc(n(C)n1)CSc1cc(c3ccccc3c1)OCCCc1c(C(=O)O)n(C)c3c-2c(Cl)ccc13 [AZD5991] (first compound max 10 µM, 7x7, partner max 1 µM)
Bliss excess (EW-24 (Ewing's Sarcoma)): -0.0178
Bliss excess [1]: -0.0526
Bliss excess [2]: 0.0265
Bliss excess [3]: -0.0005
Bliss excess [4]: 0.0252
Bliss excess (UACC-62 (Melanoma)): -0.0612
Bliss excess [5]: -0.0337
Bliss excess (PWR-1E (Non-Cancerous)): 0.0128
Bliss excess [6]: -0.0375
Bliss excess [7]: 0.0353
Bliss excess [8]: 0.0106
Bliss excess [9]: -0.0722
Bliss excess (NB69 (Neuroblastoma)): 0.0058
Bliss excess [10]: -0.115
Bliss excess [11]: -0.0442
Bliss excess [12]: -0.0101
Bliss excess [13]: -0.0405
Bliss excess [14]: 0.0132
Bliss excess [15]: -0.0219
Bliss excess (D-263MG (Glioblastoma)): -0.0135

Cc1c2c(nn1C)CSCc1cc(n(C)n1)CSc1cc(c3ccccc3c1)OCCCc1c(C(=O)O)n(C)c3c-2c(Cl)ccc13 [AZD5991] + C1CN(CCC1(C(=O)N[C@@H](CCO)C2=CC=C(C=C2)Cl)N)C3=NC=NC4=C3C=CN4 [Capivasertib] (first compound max 1 µM, 7x7, partner max 3 µM)
Bliss excess (EW-24 (Ewing's Sarcoma)): 0.0392
Bliss excess [1]: 0.0103
Bliss excess [2]: 0.0125
Bliss excess [3]: 0.0003
Bliss excess [4]: 0.0419
Bliss excess (UACC-62 (Melanoma)): 0.0121
Bliss excess [5]: -0.0114
Bliss excess (PWR-1E (Non-Cancerous)): -0.0077
Bliss excess [6]: 0.0178
Bliss excess [7]: 0.0322
Bliss excess [8]: 0.0274
Bliss excess [9]: 0.0285
Bliss excess (NB69 (Neuroblastoma)): -0.0071
Bliss excess [10]: 0.0117
Bliss excess [11]: 0.0394
Bliss excess [12]: -0.0109
Bliss excess [13]: -0.0177
Bliss excess [14]: 0.0528
Bliss excess [15]: 0.0232
Bliss excess (D-263MG (Glioblastoma)): 0.083

CN(CCO)CC[C@H](CSc1ccccc1)Nc1ccc(S(=O)(=O)NC(=O)c2ccc(N3CCC([C@@H](O)c4ccccc4-c4ccc(Cl)cc4)CC3)cc2)cc1S(=O)(=O)C(F)(F)F [AZD4320] + CN(C)CCCOc1ccc(-c2ccc3ncc4c(c3c2)n(C2CCOCC2)c(=O)n4C)cn1 [AZD0156] (first compound max 1 µM, 7x7, partner max 1 µM)
Bliss excess (EW-24 (Ewing's Sarcoma)): -0.0096
Bliss excess [1]: 0.0196
Bliss excess [2]: -0.0626
Bliss excess [3]: -0.0491
Bliss excess [4]: -0.019
Bliss excess (UACC-62 (Melanoma)): -0.0368
Bliss excess [5]: -0.0155
Bliss excess (PWR-1E (Non-Cancerous)): -0.0208
Bliss excess [6]: -0.0217
Bliss excess [7]: -0.0606
Bliss excess [8]: -0.0354
Bliss excess [9]: -0.0469
Bliss excess (NB69 (Neuroblastoma)): -0.12
Bliss excess [10]: -0.0024
Bliss excess [11]: 0.0214
Bliss excess [12]: -0.0379
Bliss excess [13]: -0.0404
Bliss excess [14]: 0.024
Bliss excess [15]: -0.064
Bliss excess (D-263MG (Glioblastoma)): -0.0256

CCN(CCO)CCCOc1ccc2c(Nc3cc(CC(=O)Nc4cccc(F)c4)[nH]n3)ncnc2c1 [AZD2811] + O=C(c1cc(Cc2n[nH]c(=O)c3ccccc23)ccc1F)N1CCN(C(=O)C2CC2)CC1 [Olaparib] (first compound max 1 µM, 7x7, partner max 10 µM)
Bliss excess (EW-24 (Ewing's Sarcoma)): 0.0173
Bliss excess [1]: 0.025
Bliss excess [2]: 0.0461
Bliss excess [3]: -0.0669
Bliss excess [4]: 0.0345
Bliss excess (UACC-62 (Melanoma)): -0.004
Bliss excess [5]: 0.0234
Bliss excess (PWR-1E (Non-Cancerous)): 0.0243
Bliss excess [6]: 0.0193
Bliss excess [7]: -0.0184
Bliss excess [8]: -0.0015
Bliss excess [9]: 0.0181
Bliss excess (NB69 (Neuroblastoma)): -0.0517
Bliss excess [10]: 0.0328
Bliss excess [11]: -0.0191
Bliss excess [12]: 0.0206
Bliss excess [13]: -0.0075
Bliss excess [14]: -0.03
Bliss excess [15]: -0.0122
Bliss excess (D-263MG (Glioblastoma)): -0.0018

COc1cccc2c1C(=O)c1c(O)c3c(c(O)c1C2=O)C[C@@](O)(C(=O)CO)C[C@@H]3O[C@H]1C[C@H](N)[C@H](O)[C@H](C)O1 [Doxorubicin] + Cc1cc2ncnn2cc1Nc1ncc2c(n1)n(C1CCOCC1)c(=O)n2C [AZD7648] (first compound max 1 µM, 7x7, partner max 10 µM)
Bliss excess (EW-24 (Ewing's Sarcoma)): 0.0145
Bliss excess [1]: 0.0154
Bliss excess [2]: 0.0167
Bliss excess [3]: 0.0055
Bliss excess [4]: 0.0466
Bliss excess (UACC-62 (Melanoma)): 0.0306
Bliss excess [5]: -0.0056
Bliss excess (PWR-1E (Non-Cancerous)): 0.12
Bliss excess [6]: 0.0818
Bliss excess [7]: -0.0417
Bliss excess [8]: 0.0233
Bliss excess [9]: 0.021
Bliss excess (NB69 (Neuroblastoma)): 0.0516
Bliss excess [10]: 0.1
Bliss excess [11]: -0.0214
Bliss excess [12]: 0.0383
Bliss excess [13]: -0.0262
Bliss excess [14]: 0.155
Bliss excess [15]: 0.0171
Bliss excess (D-263MG (Glioblastoma)): 0.032

NC1(C(=O)N[C@@H](CCO)c2ccc(Cl)cc2)CCN(c2ncnc3[nH]ccc23)CC1 [Capivasertib] + COc1nnc2ccc(N3CCC(c4ccc(OCCN5CCN(C)C(=O)[C@H]5C)cc4)CC3)nn12 [AZD5153] (first compound max 10 µM, 7x7, partner max 1 µM)
Bliss excess (EW-24 (Ewing's Sarcoma)): 0.0532
Bliss excess [1]: 0.0289
Bliss excess [2]: -0.0594
Bliss excess [3]: 0.0634
Bliss excess [4]: -0.0086
Bliss excess (UACC-62 (Melanoma)): -0.0551
Bliss excess [5]: -0.0387
Bliss excess (PWR-1E (Non-Cancerous)): 0.0579
Bliss excess [6]: -0.0336
Bliss excess [7]: 0.0278
Bliss excess [8]: 0.0602
Bliss excess [9]: -0.0275
Bliss excess (NB69 (Neuroblastoma)): -0.0299
Bliss excess [10]: 0.046
Bliss excess [11]: -0.0177
Bliss excess [12]: 0.0414
Bliss excess [13]: -0.0359
Bliss excess [14]: -0.0442
Bliss excess [15]: 0.0097
Bliss excess (D-263MG (Glioblastoma)): 0.0459
